Assay results reported in patent publication US8895585B2, “Nicotinamide derivative or salt thereof” (FUJIFILM Corporation, priority 2010, dated 2014).

Target: T1, glutathione S-transferase (GST)-fused full-length human Syk protein (Homo sapiens, UniProt P43405)
T1 construct: (GST)-fused full-length human Syk protein; GST (glutathione S-transferase); purchased Carna Biosciences
Test: Syk enzyme assay
Format: biochemical
Details: Syk enzyme assay, Test Example 1; read-out: IC50 of Syk-inhibitory activity
Outline: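 Baculovirus-expressed enzyme (1.2 ng) was preincubated with compound in HEPES pH 7.0/MgCl2/DTT buffer, 2 min shaking then 13 min at room temperature. Biotin-EDPDYEWPSA-NH2 (0.4 μM final) and ATP (27 μM final) were added for 40 min at room temperature. EDTA stop, streptavidin-XL/PT66-K TR-FRET at 615/665 nm gave IC50.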

Row | SMILES | IC50
1 | Cc1ccccc1Nc1nc(NCCN)c(F)cc1C(N)=O [Example 008-003] | 100 to 1000 nM
2 | NC(=O)c1cc(F)c(NCc2ccc[nH]2)nc1Nc1ccc2ncccc2c1 [Example 012-003] | 100 to 1000 nM
3 | NC(=O)c1cc(F)c(N[C@@H](C(N)=O)c2ccccc2)nc1Nc1ccc2ncsc2c1 [Example 012-004] | 10 to 50 nM
4 | NC(=O)c1cc(F)c(NC(Cc2ccccc2)C(N)=O)nc1Nc1ccc2ncsc2c1 (stereo not drawn) [Example 012-006] | 10 to 50 nM
5 | NC(=O)c1cc(F)c(N[C@H](Cc2ccccc2)C(N)=O)nc1Nc1ccc2ncccc2c1 [Example 012-012] | 10 to 50 nM
6 | NC(=O)c1cc(F)c(NCCc2cnc[nH]2)nc1Nc1ccc2ncccc2c1 [Example 012-014] | 100 to 1000 nM
7 | NC(=O)c1cc(F)c(NCc2cnc[nH]2)nc1Nc1ccc2ncccc2c1 [Example 012-015] | 50 to 100 nM
8 | NC(=O)c1cc(F)c(NCc2ccccn2)nc1Nc1ccc2ncccc2c1 [Example 012-016] | 100 to 1000 nM
9 | NC(=O)c1cc(F)c(NCc2cccnc2)nc1Nc1ccc2ncccc2c1 [Example 012-017] | 100 to 1000 nM
10 | NC(=O)c1cc(F)c(NCc2ccncc2)nc1Nc1ccc2ncccc2c1 [Example 012-018] | 100 to 1000 nM
11 | NC(=O)CNc1nc(Nc2ccc3ncccc3c2)c(C(N)=O)cc1F [Example 012-019] | 50 to 100 nM
12 | NC(=O)c1cc(F)c(NCc2cnc[nH]2)nc1Nc1cnc2ccccc2c1 [Example 012-020] | 100 to 1000 nM
13 | NC(=O)c1cc(F)c(NCCO)nc1Nc1ccc2ncccc2c1 [Example 012-021] | < 10 nM
14 | NC(=O)c1cc(F)c(N[C@@H](CO)Cc2ccccc2)nc1Nc1ccc2ncccc2c1 [Example 012-023] | 100 to 1000 nM
15 | NC(=O)c1cc(F)c(N[C@@H](CO)c2ccccc2)nc1Nc1ccc2ncccc2c1 [Example 012-024] | 100 to 1000 nM
16 | NC(=O)c1cc(F)c(N[C@H](Cc2ccccc2)C(N)=O)nc1Nc1cnc2ccccc2c1 [Example 012-025] | 10 to 50 nM

Row | SMILES | IC50
17 | CC(C)C[C@@H](Nc1nc(Nc2ccc3ncccc3c2)c(C(N)=O)cc1F)c1nnn[nH]1 [Example 012-026] | 100 to 1000 nM
18 | NC(=O)c1cc(F)c(NCc2cnn[nH]2)nc1Nc1ccc2ncccc2c1 [Example 012-027] | 50 to 100 nM
19 | NC(=O)c1cc(F)c(NCc2ncc[nH]2)nc1Nc1ccc2ncccc2c1 [Example 012-028] | 100 to 1000 nM
20 | NC(=O)c1cc(F)c(N[C@H](Cc2ccccc2)c2ncc[nH]2)nc1Nc1ccc2ncccc2c1 [Example 012-029] | 100 to 1000 nM
21 | CC(C)C[C@@H](Nc1nc(Nc2ccc3ncccc3c2)c(C(N)=O)cc1F)c1ncc[nH]1 [Example 012-030] | 100 to 1000 nM
22 | CC(C)[C@@H](Nc1nc(Nc2ccc3ncccc3c2)c(C(N)=O)cc1F)C(N)=O [Example 012-032] | 50 to 100 nM
23 | NC(=O)c1cc(F)c(NC(Cc2ccc(F)cc2)C(N)=O)nc1Nc1ccc2ncccc2c1 (stereo not drawn) [Example 012-033] | 10 to 50 nM
24 | COc1ccc(C[C@@H](Nc2nc(Nc3ccc4ncccc4c3)c(C(N)=O)cc2F)C(N)=O)cc1 [Example 012-034] | 100 to 1000 nM
25 | NC(=O)c1cc(F)c(N[C@H](Cc2cnc[nH]2)C(N)=O)nc1Nc1ccc2ncccc2c1 [Example 012-035, (R)-6-((1-amino-3-(1H-imidazol-5-yl)-1-oxopropan-2-yl)amino)-5-fluoro-2-((quinolin-6-yl)amino)nicotinamide] | 100 to 1000 nM
26 | CC(C)(C)[C@@H](Nc1nc(Nc2ccc3ncccc3c2)c(C(N)=O)cc1F)C(N)=O [Example 012-037] | 50 to 100 nM
27 | CCC[C@@H](Nc1nc(Nc2ccc3ncccc3c2)c(C(N)=O)cc1F)C(N)=O [Example 012-038] | 10 to 50 nM
28 | NC(=O)c1cc(F)c(NCC(N)Cc2ccccc2)nc1Nc1ccc2ncccc2c1 (stereo not drawn) [Example 014-003] | 50 to 100 nM
29 | CCC(N)CNc1nc(Nc2ccc3ncccc3c2)c(C(N)=O)cc1F (stereo not drawn) [Example 014-004] | 10 to 50 nM
30 | CC(C)(C)[C@H](N)CNc1nc(Nc2ccc3ncccc3c2)c(C(N)=O)cc1F [Example 014-015, (S)-6-((2-amino-3,3-dimethylbutyl)amino)-5-fluoro-2-((quinolin-6-yl)amino)nicotinamide] | 50 to 100 nM
31 | NC(=O)c1cc(F)c(NC[C@@H](N)c2cccnc2)nc1Nc1ccc2ncccc2c1 [Example 014-018, (S)-6-((2-amino-2-(pyridin-3-yl)ethyl)amino)-5-fluoro-2-((quinolin-6-yl)amino)nicotinamide] | 10 to 50 nM
32 | NC(=O)c1cc(F)c(NCC2CCCCN2)nc1Nc1ccc2ncccc2c1 (stereo not drawn) [Example 014-021] | 100 to 1000 nM

Other lines, results leading:

Row | IC50 | SMILES
33 | 10 to 50 nM | Cc1cc(C)cc(Nc2nc(NCCN)c(F)cc2C(N)=O)c1 [Example 008-002]
34 | < 10 nM | NC(=O)c1cc(F)c(NC2CCCCC2N)nc1Nc1cnc2ccccc2c1 (stereo not drawn) [Example 008-004]
35 | < 10 nM | NC(=O)c1cc(F)c(NC2CCCCC2N)nc1Nc1cccc(Cl)c1 (stereo not drawn) [Example 008-008]
36 | 100 to 1000 nM | CNc1nc(Nc2ccc3ncccc3c2)c(C(N)=O)cc1F [Example 012-022]
37 | 10 to 50 nM | CC(C)(N)CNc1nc(Nc2ccc3ncccc3c2)c(C(N)=O)cc1F [Example 014-011, 6-((2-amino-2-methylpropyl)amino)-5-fluoro-2-((quinolin-6-yl)amino)nicotinamide]
38 | 50 to 100 nM | CC(C)(CN)Nc1nc(Nc2ccc3ncccc3c2)c(C(N)=O)cc1F [Example 014-012, 6-((1-amino-2-methylpropan-2-yl)amino)-5-fluoro-2-((quinolin-6-yl)amino)nicotinamide]
39 | 100 to 1000 nM | CCNc1nc(Nc2cc(OC)cc(OC)c2)c(C(N)=O)cc1F [Example 016-001]
40 | 100 to 1000 nM | COc1cc(Nc2nc(NCC(N)=O)c(F)cc2C(N)=O)cc(OC)c1 [Example 016-005]
41 | 100 to 1000 nM | COc1cc(Nc2nc(NCC3CC3)c(F)cc2C(N)=O)cc(OC)c1 [Example 016-008]
42 | 10 to 50 nM | COc1cc(Nc2nc(NC(C(N)=O)c3ccccc3)c(F)cc2C(N)=O)cc(OC)c1 (stereo not drawn) [Example 016-009]
43 | 100 to 1000 nM | COc1cc(Nc2nc(NCCc3cnc[nH]3)c(F)cc2C(N)=O)cc(OC)c1 [Example 016-011]
44 | 100 to 1000 nM | C#CCNc1nc(Nc2cc(OC)cc(OC)c2)c(C(N)=O)cc1F [Example 016-012]
45 | 100 to 1000 nM | COc1cc(Nc2nc(NCc3ccccc3N)c(F)cc2C(N)=O)cc(OC)c1 [Example 016-014]
46 | 100 to 1000 nM | COc1cc(Nc2nc(NCc3ccc(N)cc3)c(F)cc2C(N)=O)cc(OC)c1 [Example 016-015]
47 | 100 to 1000 nM | COc1cc(Nc2nc(NCc3cc4ccccc4[nH]3)c(F)cc2C(N)=O)cc(OC)c1 [Example 016-016]
48 | 10 to 50 nM | COc1cc(Nc2nc(N[C@@H](C(N)=O)c3ccccc3)c(F)cc2C(N)=O)cc(OC)c1 [Example 016-017]
49 | 100 to 1000 nM | COc1cc(Nc2nc(N[C@H](C(N)=O)c3ccccc3)c(F)cc2C(N)=O)cc(OC)c1 [Example 016-018]
50 | 100 to 1000 nM | COc1cc(Nc2nc(Nc3ccncc3)c(F)cc2C(N)=O)cc(OC)c1 [Example 016-020]
51 | 100 to 1000 nM | COc1cc(Nc2nc(N3CCNC(=O)C3)c(F)cc2C(N)=O)cc(OC)c1 [Example 016-024]
52 | 100 to 1000 nM | COc1cc(Nc2nc(N3CCC(N)C3)c(F)cc2C(N)=O)cc(OC)c1 (stereo not drawn) [Example 018-001]

Same assay, conditions: read-out: Syk-inhibitory activity (IC50)

Row | SMILES | IC50
53 | NC(=O)c1cc(F)c(N[C@H](Cc2ccccc2)C(N)=O)nc1Nc1cnc2ccccc2c1 [Example 12-25] | ≤ 1000 nM
54 | NC(=O)c1cc(F)c(NCc2cnn[nH]2)nc1Nc1ccc2ncccc2c1 [Example 12-27, 5-fluoro-2-(quinolin-6-ylamino)-6-(((1H-1,2,3-triazol-5-yl)methyl)amino)nicotinamide] | ≤ 1000 nM
55 | NC(=O)c1cc(F)c(NCc2ncc[nH]2)nc1Nc1ccc2ncccc2c1 [Example 12-28, 5-fluoro-6-(((1H-imidazol-2-yl)methyl)amino)-2-(quinolin-6-ylamino)nicotinamide] | ≤ 1000 nM

More lines, now with the values ahead:

Row | IC50 | SMILES
56 | ≤ 1000 nM | Cc1cc(C)cc(Nc2nc(NCCN)c(F)cc2C(N)=O)c1 [Example 8-2, 6-((2-aminoethyl)amino)-2-((3,5-dimethylphenyl)amino)-5-fluoro-nicotinamide]
57 | ≤ 1000 nM | CCNc1nc(Nc2cc(OC)cc(OC)c2)c(C(N)=O)cc1F [Example 15, 2-(3,5-dimethoxyphenylamino)-6-(ethylamino)-5-fluoronicotinamide]
58 | ≤ 1000 nM | COc1cc(Nc2nc(NCC3CC3)c(F)cc2C(N)=O)cc(OC)c1 [Example 16-8, 6-((cyclopropylmethyl)amino)-2-((3,5-dimethoxyphenyl)amino)-5-fluoronicotinamide]
59 | ≤ 1000 nM | COc1cc(Nc2nc(NC(C(N)=O)c3ccccc3)c(F)cc2C(N)=O)cc(OC)c1 (stereo not drawn) [Example 16-9, 6-((2-amino-2-oxo-1-phenylethyl)amino)-2-((3,5-dimethoxyphenyl)amino)-5-fluoronicotinamide]
60 | ≤ 1000 nM | COc1cc(Nc2nc(N[C@@H](C(N)=O)c3ccccc3)c(F)cc2C(N)=O)cc(OC)c1 [Example 16-17, 6-(((1R)-2-amino-2-oxo-1-phenylethyl)amino)-2-((3,5-dimethoxyphenyl)amino)-5-fluoronicotinamide]
61 | ≤ 1000 nM | COc1cc(Nc2nc(N[C@H](C(N)=O)c3ccccc3)c(F)cc2C(N)=O)cc(OC)c1 [Example 16-18, 6-(((1S)-2-amino-2-oxo-1-phenylethyl)amino)-2-((3,5-dimethoxyphenyl)amino)-5-fluoronicotinamide]
62 | ≤ 1000 nM | COc1cc(Nc2nc(N3CC[C@@H](N)C3)c(F)cc2C(N)=O)cc(OC)c1 [Example 17, 6-((3R)-3-aminopyrrolidin-1-yl)-2-(3,5-dimethoxyphenylamino)-5-fluoronicotinamide]
63 | ≤ 1000 nM | COc1cc(Nc2nc(NCCc3c[nH]c4ccccc34)c(F)cc2C(N)=O)cc(OC)c1 [Example 19, 2-(3,5-dimethoxyphenylamino)-5-fluoro-6-(2-(1H-indole-3-yl)ethylamino)nicotinamide]
